In the NIST ThermoML archive (doi:10.1016/j.tca.2006.03.011):
Numbers after ± are expanded uncertainties.

Tests used:
[1] = DTA; for Normal melting temperature: Crystal 1
[2] = Molar enthalpy of transition or fusion; conditions: DSC

| Compound | Normal melting temperature [1] | Molar enthalpy of transition or fusion ([2]; Crystal 1) | Triple point temperature ([1]; Crystal 2) | Triple point temperature ([1]; Crystal 3) | Molar enthalpy of transition or fusion ([2]; Crystal 2) | Molar enthalpy of transition or fusion ([2]; Crystal 3) |
| --- | --- | --- | --- | --- | --- | --- |
| CCCCCCCCCCCCCCCCCCCC [eicosane] | 38.5 ± 0.71 °C | 16.5 ± 0.43 kcal/mol |  |  |  |  |
| CCCCCCCCCCCCCCCCCCCCCCCCCCCCCCCCCCCC [hexatriacontane] | 77.04 ± 0.71 °C | 19.5 ± 0.502 kcal/mol | 348.28 ± 0.71 K | 347.33 ± 0.71 K | 5.91 ± 0.172 kcal/mol | 2.8 ± 0.0932 kcal/mol |
| c1ccc2ccccc2c1 [naphthalene] | 81.54 ± 0.71 °C | 4.67 ± 0.141 kcal/mol |  |  |  |  |
| CCCCCCCCCCCCCCCCCCCCCCCCC [pentacosane] | 52.77 ± 0.71 °C | 13.3 ± 0.359 kcal/mol | 312.9 ± 0.71 K | 309 ± 0.71 K | 0.256 ± 0.0311 kcal/mol | 5.71 ± 0.167 kcal/mol |
